Measured values published in US20150104870A1, “NEURONAL DIFFERENTIATION PROMOTER” (KEIO UNIVERSITY, priority 2012, published 2015).
“Also recorded” adds a separate entry of the source.

How the values were obtained:
p2 neurospheres = experiment: Mouse ESC-derived neurosphere differentiation assay; assay type: cell-based; conditions: for neuronal differentiation (βIII-tubulin-positive neurons) of p2 neurospheres: lentiviral overexpression in NSCs from p0 stage, differentiated at p2, control miR-LacZ
Protocol: (§1) Mouse ESC (EB3) culture, EB formation, neurosphere formation and differentiation of neurosphere were performed as previously described (Nat. Neurosci. 11, 1014-1023 (2008)). Human NSCs were grown as previously described (J. Neurosci. Res. 69, 869-879 (2002); J. Neurosci. Res. 87, 307-317 (2009)) without […] growth factor (EGF), and allowed to differentiate on a substrate-coated coverslips in the absence of mitogen for 14 days, a procedure similar to that used for mouse neurosphere.
(§2) Immunocytechemistry and immunohistochemistry were performed as previously described (Nat. Neurosci. 11, 1014-1023 (2008)) using antibodies against βIII-tubulin, NeuN (neural marker), glial fibrillary acidic protein (GFAP, astrocyte marker), and haemagglutinin (HA).

developing mouse brain = experiment: In utero lentiviral microinjection, fate of infected cells in cerebral cortex; assay type: in vivo; conditions: lentivirus injected in utero at E10.5, examined at P30
Protocol: Experiments were performed using ICR mice. All aspects of animal care and treatment were carried according to the guidelines of the Experimental Animal Committee of Keio University School of Medicine. In utero microinjection of lentivirus particles into the brain of E10.5 ICR mouse was guided by an in vivo ultrasound real-time scanner (Vevo660; VisualSonics).
as §2

Gfap promoter = experiment: Bisulfite sequencing of CpG methylation status; assay type: cell-based, mouse
Text: The methylation frequency of 10 CpG sequences on the Gfap promoter, including the CpG site in the STAT3-binding sequence as indicated by the arrows, was examined. The graphs show the percentages of methylated CpG cytosines in the whole Gfap promoter (left graph) and the STAT3-binding region (right graph) (t test, n (≧10 clones)=3, NS (not significant), P>0.05). Bars and error bars represent the mean+s.e.m for each condition.

[1] = system: miR-17 binding site in 3′UTR of p38 mRNA; experiment: DsRed-Express2 reporter assay (Mp38 sensor) in HEK293 cells; assay type: cell-based, human; conditions: HEK293 stable transformant, FACS one week after lentivirus, compared to miR-LacZ
Text: FIG. 17 is a graph showing that miR-17 binds to a binding site in the 3′ untranslated region (UTR) of mouse p38 mRNA. […] The miR-17 binding site in 3′UTR of p38 mRNA (to be referred to as “Mp38 sensor”; 2970-2992 of NM_011951) was cloned into a mammal expression vector of the DsRed-Express2 reporter system. After transformation of HEK293 cells, lentiviruses expressing miR-LacZ or miR-17 were introduced into a stable transformant. One week later, the intracellular expression level of DsRed-Express2 was analyzed by FACS. […] (t-test, n (≧3000 cells)=3, **P<0.01). Bars and error bars represent the mean+s.e.m for each condition.

p38 = experiment: Western blotting of p38 expression in neurospheres; assay type: cell-based, mouse; conditions: p2 neurospheres
[2] = system: human fetal brain-derived neurospheres; experiment: Human neurosphere differentiation assay; assay type: cell-based; conditions: human neurospheres treated with inhibitor, vs control
Protocol: as §1, §2

Compound: miR-106b: miRNA targeting p38, SEQ ID NO: 7, paralog of miR-17 (UAAAGUGCUGACAGUGCAGAU; listed as RNA, chemistry not fully specified; listed as Mus musculus)
- neuronal differentiation (βIII-tubulin-positive neurons) of p2 neurospheres (p2 neurospheres): led to a neuronal phenotype; also recorded: stronger than that of miR-106a

Compound: miR-17: miRNA targeting p38, SEQ ID NO: 5, overexpressed by lentivirus (guide CAAAGUGCUUACAGUGCAGGUAG; listed as Mus musculus)
- differentiation of p2 neurospheres in presence of gliogenic cytokines (p2 neurospheres; LIF (10 ng/ml) and BMP2 (100 ng/ml) during differentiation, p2 stage): differentiated exclusively into neurons; also recorded: did not undergo gliogenesis
- neuropotency of p3 neurospheres (p2 neurospheres; lentiviral infection at onset of p3 stage, within 1 week): marked recovery of neuropotency; also recorded: restored neuropotency of mouse p3 neurospheres
- neuronal differentiation (βIII-tubulin-positive neurons) of p2 neurospheres (p2 neurospheres): replicated the phenotype induced by the intact miR-17-92 cluster
- infected cells fated to become neurons in the cerebral cortex (developing mouse brain): 97.6%
- CpG methylation of Gfap promoter (Gfap promoter; p2 neurosphere stage, overexpression from p0): no significant changes in the extent of CpG methylation
- DNA methylation status of the Gfap promoter (Gfap promoter; p3 neurospheres): did not change significantly
- DsRed-Express2 reporter expression linked to Mp38 sensor / interaction with p38 mRNA [1]: direct interaction; also recorded: caused a decrease in DsRed-Express2
- p38 protein expression (p38): suppressed p38 expression at p2 stage

Compound: C[S+]([O-])c1ccc(-c2nc(-c3ccncc3)c(-c3ccc(F)cc3)[nH]2)cc1 (stereo not drawn) [SB203580, reference compound]
- percentage of neurons differentiated from p2 neurospheres (neuropotency) (p2 neurospheres; mouse p2 neurospheres, treatment with inhibitor during growth, vs control): showed higher neuropotency than controls; also recorded: increased the percentage of neurons differentiated from p2 neurospheres
- percentage of neurons differentiated from human neurospheres (neuropotency) [2]: restored neuropotency; also recorded: increased the percentage of neurons differentiated from the neurospheres

Compound: miR-106a: miRNA targeting p38, SEQ ID NO: 6, paralog of miR-17 (CAAAGUGCUAACAGUGCAGGUAG; listed as RNA, chemistry not fully specified; listed as Mus musculus)
- neuronal differentiation (βIII-tubulin-positive neurons) of p2 neurospheres (p2 neurospheres): led to a neuronal phenotype
